Results published in patent US6831081B2, “4-Oxo-4,7-dihydrothieno[2,3-b]pyridine-5-carboxamides as antiviral agents” (Pharmacia & Upjohn, priority 2002, dated 2004).
pIC50: −log10 of the molar value.

How the values were obtained:
HSV polymerase = HSV polymerase (Human herpesvirus 1, UniProt P04293); experiment: HSV polymerase assay (SPA); type: biochemical
Procedure: [Worded in the source for another target; used here, by the source, with some conditions changed.] (§1) The HCMV polymerase assay is performed using a scintillation proximity assay (SPA) as described in several references, such as N.D. Cook, et al., Pharmaceutical Manufacturing International, pages 49-53 (1992), K Takeuchi, Laboratory Practice, September issue (1992); U.S. Pat. No. 4,568,649 (1986); which are incorporated by reference herein. Reactions are performed in 96-well plates. The assay is conducted in 100 μl volume with 5.4 mM HEPES (pH 7.5), 11.7 mM KCl, 4.5 mM MgCl2, 0.36 mg/ml BSA, and 90 nM ^3H-dTTP. Assays are run with and without CHAPS, (3-[(3-Cholamidopropyl)-dimethylammonio]-1-propane-sulfonate) at a final concentration of 2 mM. HCMV polymerase is diluted in enzyme dilution buffer containing 50% glycerol, 250 mM NaCl, 10 mM HEPES (pH 7.5), […] BSA, and 0.01% sodium azide. The HCMV polymerase, which is expressed in recombinant baculovirus-infected SF-9 cells and purified according to literature procedures, is added at 10% (or 10 μl) of the final reaction volume, i.e., 100 μl. Compounds are diluted in 50% DMSO and 10 μl are added to each well. Control wells contain an equivalent concentration of DMSO. Unless noted otherwise, reactions are initiated via the addition of 6 nM biotinylated poly(dA)-oligo(dT) template/primer to reaction mixtures containing the enzyme, substrate, and compounds of interest. Plates are incubated in a 25° C. or 37° C. H2O bath and terminated via the addition of 40 μl/reaction of 0.5 M EDTA (pH 8) per well. Reactions are terminated within the time-frame during which substrate incorporation is linear and varied depending upon the enzyme and conditions used, Le., 30 min. for HCMV polymerase. Ten (10) μl of streptavidin-SPA beads (20 mg/ml in PBS/10% glycerol) are added following termination of the reaction. Plates are incubated 10 min. at 37° C., then equilibrated to room temperature, and counted on a Packard Topcount. Linear regressions are performed and IC50's are calculated using computer software.
(§2) A modified version of the above HCMV polymerase assay is performed as described above, but with the following changes: Compounds are diluted in 100% DMSO until final dilution into assay buffer. In the previous assay, compounds are diluted in 50% DMSO. 4.5 mM Dithiothreitol (DTT) is added to the polymerase buffer.
(§3) All results are listed as Polymerase IC50(μM) values. In Table 1, the term “n.d.” refers to activity data not determined.

VZV polymerase = VZV polymerase (Varicella-zoster virus, UniProt P09252); experiment: VZV polymerase assay (SPA); type: biochemical
Sequence of VZV polymerase (P09252 whole entry): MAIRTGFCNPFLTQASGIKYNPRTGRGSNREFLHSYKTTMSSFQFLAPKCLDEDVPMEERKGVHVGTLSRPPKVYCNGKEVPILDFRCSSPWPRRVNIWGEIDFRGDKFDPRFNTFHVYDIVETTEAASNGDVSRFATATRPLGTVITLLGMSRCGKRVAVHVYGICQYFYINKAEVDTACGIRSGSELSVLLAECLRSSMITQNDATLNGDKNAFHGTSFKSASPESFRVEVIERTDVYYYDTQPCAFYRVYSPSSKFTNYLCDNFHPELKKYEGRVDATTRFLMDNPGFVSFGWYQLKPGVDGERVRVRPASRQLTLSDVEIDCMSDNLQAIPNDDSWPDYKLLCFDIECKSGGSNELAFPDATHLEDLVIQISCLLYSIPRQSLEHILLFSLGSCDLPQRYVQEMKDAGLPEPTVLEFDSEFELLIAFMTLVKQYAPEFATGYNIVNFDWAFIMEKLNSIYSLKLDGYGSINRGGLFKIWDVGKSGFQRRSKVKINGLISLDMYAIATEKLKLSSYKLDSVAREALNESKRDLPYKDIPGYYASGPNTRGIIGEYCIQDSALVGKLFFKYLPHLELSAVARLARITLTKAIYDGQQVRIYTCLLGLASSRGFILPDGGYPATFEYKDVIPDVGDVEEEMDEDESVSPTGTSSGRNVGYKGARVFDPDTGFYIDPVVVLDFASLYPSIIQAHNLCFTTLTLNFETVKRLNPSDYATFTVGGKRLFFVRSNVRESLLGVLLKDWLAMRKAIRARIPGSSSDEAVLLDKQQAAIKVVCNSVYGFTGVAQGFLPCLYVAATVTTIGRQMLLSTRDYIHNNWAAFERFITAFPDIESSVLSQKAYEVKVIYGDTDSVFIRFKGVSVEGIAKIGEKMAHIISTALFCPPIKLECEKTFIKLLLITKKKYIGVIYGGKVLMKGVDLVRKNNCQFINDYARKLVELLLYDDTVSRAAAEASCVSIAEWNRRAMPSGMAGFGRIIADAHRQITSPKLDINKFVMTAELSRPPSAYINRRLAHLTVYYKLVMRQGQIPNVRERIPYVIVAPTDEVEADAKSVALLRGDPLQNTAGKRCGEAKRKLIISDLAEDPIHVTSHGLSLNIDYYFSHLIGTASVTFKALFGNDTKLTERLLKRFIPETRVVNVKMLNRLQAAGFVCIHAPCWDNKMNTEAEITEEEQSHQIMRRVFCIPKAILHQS
Procedure: [Worded in the source for another target; used here, by the source, with some conditions changed.] as §1, with “Control wells contain an equivalent concentration of DMSO. Unless noted otherwise, reactions are initiated via the addition of 6 nM biotinylated poly(dA)-oligo(dT) template/primer to reaction mixtures containing the enzyme, substrate, and compounds of interest. Plates are incubated in a 25° C. or 37° C. H2O bath and terminated via the addition of 40 μl/reaction of 0.5 M EDTA (pH 8) per well. Reactions are terminated within the time-frame during which substrate incorporation is linear and varied depending upon the enzyme and conditions used, Le., 30 min. for HCMV polymerase. Ten (10) μl of streptavidin-SPA beads (20 mg/ml in PBS/10% glycerol) are added following termination of the reaction.” left out, “software. […]” for “software.”
as §3

HCMV polymerase = biological target: T1, HCMV polymerase (Human cytomegalovirus, UniProt P08546); experiment: HCMV polymerase scintillation proximity assay; type: biochemical
T1 construct: made in house; host or cells: SF-9 insect cells (recombinant baculovirus)
T1 sequence (P08546 whole entry): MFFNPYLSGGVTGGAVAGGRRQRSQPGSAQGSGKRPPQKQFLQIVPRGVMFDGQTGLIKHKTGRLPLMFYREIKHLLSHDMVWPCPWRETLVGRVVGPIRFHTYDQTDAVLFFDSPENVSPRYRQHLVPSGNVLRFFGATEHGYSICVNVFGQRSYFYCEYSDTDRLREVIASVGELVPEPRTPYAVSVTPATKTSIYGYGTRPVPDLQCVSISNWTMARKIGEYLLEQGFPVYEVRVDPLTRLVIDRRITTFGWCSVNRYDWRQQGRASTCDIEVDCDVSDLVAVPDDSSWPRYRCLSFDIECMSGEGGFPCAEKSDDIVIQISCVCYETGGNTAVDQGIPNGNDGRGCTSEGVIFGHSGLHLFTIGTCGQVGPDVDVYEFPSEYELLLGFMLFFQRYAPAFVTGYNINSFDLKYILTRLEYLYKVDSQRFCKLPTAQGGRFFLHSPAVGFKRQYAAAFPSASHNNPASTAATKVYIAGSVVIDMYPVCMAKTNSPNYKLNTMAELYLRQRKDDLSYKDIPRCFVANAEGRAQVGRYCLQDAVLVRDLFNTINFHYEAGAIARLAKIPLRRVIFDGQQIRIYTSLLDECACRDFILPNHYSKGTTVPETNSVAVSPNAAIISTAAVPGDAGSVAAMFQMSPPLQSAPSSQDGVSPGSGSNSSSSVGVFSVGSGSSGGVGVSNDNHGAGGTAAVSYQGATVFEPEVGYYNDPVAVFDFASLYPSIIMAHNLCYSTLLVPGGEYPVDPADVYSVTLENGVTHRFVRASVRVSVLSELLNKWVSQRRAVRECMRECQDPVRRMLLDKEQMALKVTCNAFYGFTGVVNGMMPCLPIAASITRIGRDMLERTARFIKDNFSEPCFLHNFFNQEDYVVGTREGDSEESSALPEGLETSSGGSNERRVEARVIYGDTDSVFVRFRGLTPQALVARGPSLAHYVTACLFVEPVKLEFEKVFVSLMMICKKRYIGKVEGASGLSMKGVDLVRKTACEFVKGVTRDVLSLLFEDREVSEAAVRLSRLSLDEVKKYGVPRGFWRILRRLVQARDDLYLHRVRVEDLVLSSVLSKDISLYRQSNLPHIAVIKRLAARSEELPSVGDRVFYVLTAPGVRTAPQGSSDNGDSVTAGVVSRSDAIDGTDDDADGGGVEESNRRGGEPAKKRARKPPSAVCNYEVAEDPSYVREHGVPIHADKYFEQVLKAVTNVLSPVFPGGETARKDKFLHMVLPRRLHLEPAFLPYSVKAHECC
Procedure: as §1, §2, §3

Sequence of HSV polymerase (P04293 whole entry): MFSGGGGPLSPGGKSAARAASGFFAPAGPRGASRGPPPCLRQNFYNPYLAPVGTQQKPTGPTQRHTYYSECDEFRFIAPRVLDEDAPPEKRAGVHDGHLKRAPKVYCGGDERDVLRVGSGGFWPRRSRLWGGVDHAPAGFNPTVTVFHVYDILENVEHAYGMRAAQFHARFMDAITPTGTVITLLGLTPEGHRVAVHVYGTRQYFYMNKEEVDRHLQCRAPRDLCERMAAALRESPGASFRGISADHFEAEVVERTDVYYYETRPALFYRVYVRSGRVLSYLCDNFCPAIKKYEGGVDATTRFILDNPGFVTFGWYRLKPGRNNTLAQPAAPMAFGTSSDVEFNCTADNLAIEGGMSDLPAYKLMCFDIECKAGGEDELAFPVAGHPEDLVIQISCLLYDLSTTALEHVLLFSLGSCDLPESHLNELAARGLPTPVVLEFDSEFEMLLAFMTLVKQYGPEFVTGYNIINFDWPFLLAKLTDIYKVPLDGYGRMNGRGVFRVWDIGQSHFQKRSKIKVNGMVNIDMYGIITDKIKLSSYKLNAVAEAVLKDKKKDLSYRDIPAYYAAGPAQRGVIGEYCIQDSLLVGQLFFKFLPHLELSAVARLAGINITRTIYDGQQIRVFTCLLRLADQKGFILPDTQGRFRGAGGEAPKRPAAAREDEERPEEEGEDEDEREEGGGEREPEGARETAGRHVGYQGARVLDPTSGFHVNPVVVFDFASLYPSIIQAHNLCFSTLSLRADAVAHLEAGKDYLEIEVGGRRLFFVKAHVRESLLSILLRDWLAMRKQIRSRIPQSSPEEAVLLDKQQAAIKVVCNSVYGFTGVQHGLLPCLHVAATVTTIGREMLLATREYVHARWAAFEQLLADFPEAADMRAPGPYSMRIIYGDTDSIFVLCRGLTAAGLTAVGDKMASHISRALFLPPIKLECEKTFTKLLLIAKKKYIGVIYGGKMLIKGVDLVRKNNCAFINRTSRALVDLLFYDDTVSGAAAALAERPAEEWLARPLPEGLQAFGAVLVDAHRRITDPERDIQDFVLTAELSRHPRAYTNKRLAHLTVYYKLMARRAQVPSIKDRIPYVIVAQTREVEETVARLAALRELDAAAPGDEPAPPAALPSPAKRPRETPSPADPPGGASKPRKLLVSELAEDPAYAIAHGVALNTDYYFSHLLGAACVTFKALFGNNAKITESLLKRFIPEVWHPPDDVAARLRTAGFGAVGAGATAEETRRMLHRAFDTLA

| Structure (SMILES) | pIC50 (HSV polymerase) | pIC50 (VZV polymerase) | pIC50 (HCMV polymerase) | melting point |
| --- | --- | --- | --- | --- |
| Cn1cc(C(=O)NCc2ccc(Cl)cc2)c(=O)c2cc(CN3CCC[C@@H]3[C@@H](O)c3ccccc3)sc21 (relative stereo) [Example 2, N-(4-Chlorobenzyl)-2-(((2R*2)-(S*)-hydroxy(phenyl)methyl)pyrrolidin-1-yl)methyl)-7-methyl-4-oxo-4,7-dihydrothieno[2,3-b]pyridine-5-carboxamide] | 6.14 | 6.68 | 6.92 | 158 to 162 °C |
| Cn1cc(C(=O)NCc2ccc(Cl)cc2)c(=O)c2cc(CN3CCOC[C@@H]3[C@H](O)c3ccccc3)sc21 [Example 14, N-(4-Chlorobenzyl)-2-(((3R)-3-((R)-hydroxy(phenyl)methyl)morpholin-4-yl)-methyl)-7-methyl-4-oxo-4,7-dihydrothieno[2,3-b]pyridine-5-carboxamide] | 5.53 |  | 5.90 | 171 to 172 °C |
| Cn1cc(C(=O)NCc2ccc(Cl)cc2)c(=O)c2cc(CN3CCOC[C@@H]3[C@@H](O)c3ccccc3)sc21 [Example 15, N-(4-Chlorobenzyl)-2-(((3R)-3-((S)hydroxy(phenyl)methyl)morpholin-4-yl)-methyl)-7-methyl-4-oxo-4,7-dihydrothieno[2,3-b]pyridine-5-carboxamide] | 7.66 |  | 7.62 | 129 to 134 °C |
| Cn1cc(C(=O)NCc2ccc(Cl)cc2)c(=O)c2cc(CN3CCOC[C@@H]3Cc3ccccc3)sc21 [Example 1, 2-(((3S)-3-Benzylmorpholin-4-yl)methyl)-N-(4-chlorobenzyl)-7-methyl-4-oxo-4,7-dihydrothieno[2,3-b]pyridine-5-carboxamide] | 6.00 | 6.38 | 6.35 |  |
